{"source": "paper PMC8536644", "about": "“Enigmatic mechanism of the N-vinylpyrrolidone hepatocarcinogenicity in the rat” (Archives of Toxicology, 2021)", "key": {"rat lung cells": {"test_system": "rat lung cells", "test": "Trypan Blue viability of the single cell suspension, lung", "format": "in vivo", "conditions": "lung, 5 days, individual animals", "procedure": "The organ parts (see above) were washed in mincing buffer (50 mM EDTA in HBSS [without Ca^2+ and Mg^2+] pH 7.5: DMSO 9:1 (v/v), the latter added shortly before use, stored at 4 °C), cut into 1 to 2-mm pieces in ice-cold mincing buffer and transferred to a cell sieve with 70-µm pores. The viability of the cell suspension was evaluated by the Trypan Blue Assay (Strober [2001])."}, "[1]": {"test_system": "human lymphocyte cultures", "design": "method as in MAK [1994]", "conditions": "ref MAK [1994]; cited from earlier work"}, "CYP2E1": {"test_system": "CYP2E1", "test": "Lauric acid hydroxylase assay, 11-hydroxylation", "format": "in vivo, rat", "method": "^14C-labelled lauric acid (55 mCi/mmol) dissolved in ethanol (0.1 mCi/mL; total volume 2.5 mL) was purchased from American Radiolabeled Chemicals. 10 µL of this solution were diluted with methanol to 2 mL. The purity was checked by radio-HPLC. For the enzyme activity determinations 1.21 mL of this solution were treated in the thermomixer at 40 °C and 300 rpm until the ethanol was completely evaporated. The residue was taken up in 550 µL DMSO and checked on the incubation days by radio-HPLC and by liquid scintillation counting (LSC). To this end the just-mentioned solution in DMSO (nominally 8.14 MBq/mL) was 100-fold diluted with methanol, 50 µL of the resultant solution used for the HPLC analysis, 100 µL for the LSC analysis (488,400 dpm/100 µL).\nFor the determination of the lauric acid hydroxylase activity the liver microsomal fractions (prepared as described in the preceding chapter “Aryl hydrocarbon receptor”) derived from the NVP-treated (and untreated control) male rats were adjusted with TrisHCl pH 7.5–20 mg protein/mL. Obtained samples were measured in duplicates. Controls were heat-denatured samples (15 min at 99 °C in the thermomixer at 450 rpm), zero-time samples (reaction stopped immediately after adding substrate) and buffer controls (TrisHCl pH 7.5, no microsomal protein). 155 µL master mix (100 mM TrisHCl pH 7.5, 10 mM MgCl2, 2 mM 5’AMP-Na2, 5 mM G-6-P, 10 U G-6-P-DH) and 30 µL sample were preincubated for 3 min at 37 °C. Subsequently 10 µL of a 2-mM NADPH solution and 5 µL ^14C-lauric acid (8.14 MBq/mL) were added (lauric acid final concentration in the incubation 100 µM). The reaction was run for 20 min at 37 °C in the thermomixer (450 rpm) and stopped by the addition of 200 µL ice-cold acetone. Proteins were sedimented by centrifugation (6000 g, 10 min, 4 °C) and the supernatant used for the analysis by HPLC (system: Agilent 1260 infinity, column: EC250/4 Nucleosil, 120–5 C18, radio detector: Berthold FlowStar LB 513) under the following conditions: Injection volume 50 µL; eluent A: Methanol/acetic acid/water (600/5/400 mL), eluent B: Methanol; gradient: 0–10 min 100% eluent A, 10–20 min 0–100% eluent B, 20–30 min 100% eluent B, 30–40 min 100% eluent A; flow rate: 0.8 mL/min. In order to ascertain the assignment of the peaks to 11-hydroxylauric acid versus 12-hydroxylauric acid the retention times and mass spectra (HPLC-QTOF/MS) of a 12-hydroxylauric acid standard were compared with the lauric acid incubates (parameters of the HPLC-QTOF/MS system: (U)HPLC: Agilent 1200 und 1290; MS instrument: MS324/Agilent/S/N US10318001; radio detector: Raytest/Mirastar Masshunter Data Acquisition B.06.01; ionisation mode: ESI, negative mode)."}, "BALB/3T3 cells": {"test_system": "BALB/3T3 cells", "design": "method as in MAK [1994]", "conditions": "ref MAK [1994]; cited from earlier work"}, "CYP1A [2]": {"test_system": "CYP1A", "test": "EROD assay, liver microsomes of NVP-treated rats (AhR marker)", "format": "in vivo, rat", "conditions": "male rats", "method": "(§1) The alkoxyresorufin dealkylase (AROD) assays were based on the method by Burke et al. ([1994]).\n(§2) The frozen livers and lungs of the NVP-treated male Wistar rats were thawed and washed with isotonic (0.9%) NaCl solution. The tissues were ice-cooled homogenized (1 g tissue: 3 mL 0.25 M saccharose in 1 mM disodium EDTA, pH 7.4) and centrifuged (9000 g, 15 min, 4 °C). The supernatant fraction was centrifuged (100 000 g, 60 min, 4 °C). The resulting supernatant fraction was used for the palmitoyl-CoA-oxidase assay described further down. The pellet was taken up in 150 mM aqueous KCl solution, recentrifuged (100 000 g, 60 min, 4 °C) and the pellet taken up in 1 mL/g liver or 0.5 mL/g lung resuspension buffer (1 mM GSH, 1 mM disodium EDTA, 4 mM MgCl2, 0.1 M KH2PO4, pH 7.5 and 4% glycerol). Aliquots were stored at − 80 °C.\n(§3) For determination of the enzyme activities in triplicates, 85 µL master mix (100 mM TrisHCl pH 7.5, 2 mM 5’AMP, 5 mM G-6-P, 10 U G-6-P-DH, 10 mM Dicumarol, 10 mM MgCl2, either 2 µM EROD or 10 µM PROD or 5 µM BROD) was added to 10 µL microsomal fraction (1 mg protein/mL). The reaction was started by the addition of 5 µL 2 mM NADPH (dissolved in 100 mM TrisHCl pH 7.5) followed by incubation at 37 °C for 16 min. The activity was determined by measuring the increase of the fluorescence (excitation at 550 nm, emission at 585 nm) due to resorufin formation compared with resorufin standards, which had been prepared by dissolving tenfold concentrated solutions in DMSO, which were then diluted tenfold in 100 mM TrisHCl pH 7.5."}, "CYP2B": {"test_system": "CYP2B", "test": "PROD assay, liver microsomes (CAR marker)", "format": "in vivo, rat", "conditions": "male rats", "method": "as §1, §2, §3"}, "CYP1A [3]": {"test_system": "CYP1A", "test": "EROD inhibition control in Aroclor 1254-induced rat liver microsomes", "format": "biochemical", "conditions": "for EROD enzyme activity: 0 µM control 821.5 ± 54.9", "method": "as §3\nAs a method control the described AROD assay was performed with microsomal fractions derived from liver and lung of male Wistar rats which had been treated i.p. for 5 days with aroclor 1254 (500 mg/kg bw). These control assays were performed in presence of 1 μM, 10 μM or 100 μM NVP, respectively, in order to check for potential interactions of NVP with the substrate turnover in the AROD assay."}, "Salmonella strains": {"test_system": "Salmonella strains", "conditions": "three independent tests in four Salmonella strains; ref MAK [1994]; cited from earlier work"}, "[4]": {"conditions": "lauric acid 11-hydroxylation, liver microsomes, 20 ppm NVP, individual animals 19-24"}}, "note": "“And” between values parts separate entries of the source, which are not always exact repeats. Equal entries are not always repeated."}
{"smiles": "C=CN1CCCC1=O", "note": "[NVP, N-vinylpyrrolidone]", "values": [{"measurement": "Individual viability (%)", "setting": "rat lung cells; female, Comet with FPG (Table 11), 20 ppm inhalation", "result": 95, "unit": "%"}, {"measurement": "Individual viability (%)", "setting": "rat lung cells; female, no FPG, 20 ppm inhalation", "result": 96, "unit": "%"}, {"measurement": "Individual viability (%)", "setting": "rat lung cells; male, Comet with FPG (Table 10), 10 ppm inhalation", "result": 93, "unit": "%"}, {"measurement": "Individual viability (%)", "setting": "rat lung cells; male, no FPG, 10 ppm inhalation", "result": 93, "unit": "%"}, {"measurement": "Chromosome aberration test result", "setting": "[1]", "result": "negative"}, {"measurement": "Lauric acid 11-hydroxylation activity", "setting": "CYP2E1; 20 ppm, male rat liver microsomes", "result": "5149 ± 2010", "unit": "peak area/min/mg protein"}, {"measurement": "Increase of lauric acid 11-hydroxylation vs vehicle control", "setting": "CYP2E1; 20 ppm, statistically not significant", "result": 1.1, "unit": "fold"}, {"measurement": "ω-1-hydroxylase (CYP2E1-activity), enzyme activity individual", "setting": "CYP2E1; [4]", "result": "7458 peak surface/min/mg protein and 7295 peak surface/min/mg protein and 3522 peak surface/min/mg protein and 5008 peak surface/min/mg protein and 5216 peak surface/min/mg protein and 2393 peak surface/min/mg protein"}, {"measurement": "ω-1-hydroxylase (CYP2E1-activity), peak surface", "setting": "CYP2E1; [4]", "result": "9940 and 10,040 and 5283 and 7513 and 7824 and 3996"}, {"measurement": "ω-1-hydroxylase (CYP2E1-activity), enzyme activity group (mean ± SD)", "setting": "CYP2E1; lauric acid 11-hydroxylation, liver microsomes, 20 ppm NVP, vehicle 4512 ± 1050", "result": "5149 ± 2010 peak surface/min/mg protein"}, {"measurement": "BALB/3T3 cell transformation test result", "setting": "BALB/3T3 cells", "result": "negative"}, {"measurement": "Liver microsomal EROD activity", "setting": "CYP1A [2]; 5 ppm", "result": "20.5 ± 3.6", "unit": "pmol/min/mg protein"}, {"measurement": "Liver microsomal EROD activity", "setting": "CYP1A [2]; 10 ppm", "result": "22.0 ± 5.8", "unit": "pmol/min/mg protein"}, {"measurement": "Liver microsomal EROD activity", "setting": "CYP1A [2]; 20 ppm", "result": "16.9 ± 6.4", "unit": "pmol/min/mg protein"}, {"measurement": "Liver microsomal PROD activity", "setting": "CYP2B; 5 ppm", "result": "12.4 ± 1.9", "unit": "pmol/min/mg protein"}, {"measurement": "Liver microsomal PROD activity", "setting": "CYP2B; 10 ppm", "result": "16.5 ± 4.3", "unit": "pmol/min/mg protein"}, {"measurement": "Liver microsomal PROD activity", "setting": "CYP2B; 20 ppm", "result": "10.0 ± 2.8", "unit": "pmol/min/mg protein"}, {"measurement": "EROD enzyme activity", "setting": "CYP1A [3]; 1 µM NVP", "result": "859.9 ± 14.1", "unit": "pmol/min/mg protein"}, {"measurement": "EROD enzyme activity", "setting": "CYP1A [3]; 10 µM NVP", "result": "827.9 ± 13.6", "unit": "pmol/min/mg protein"}, {"measurement": "EROD enzyme activity", "setting": "CYP1A [3]; 100 µM NVP", "result": "858.9 ± 33.9", "unit": "pmol/min/mg protein"}, {"measurement": "Inhibition of EROD activity", "setting": "CYP1A [3]; 1, 10 or 100 µM NVP", "result": "does not lead to inhibition"}, {"measurement": "Ames Salmonella back mutation test result", "setting": "Salmonella strains", "result": "negative"}]}
